From patent US20230263822A1, “MODULATION OF FACTOR 11 EXPRESSION” (Ionis Pharmaceuticals, Inc., priority 2008, published 2023)
Strand notation (5' to 3'): a small letter for the sugar, then the base; units joined by * are phosphorothioate-linked, units joined directly phosphodiester-linked; [ ] holds rarer units or linkages, { } end groups; capitals alone tell only the bases. e = 2'-O-(2-methoxyethyl) (MOE); [5mC] = 5-methylcytosine; d = 2'-deoxy (DNA)

Columns and labels:
[1] = Hematology assays in cynomolgus monkeys (Example 46); assay type: in vivo
Protocol: (§1) Groups, each consisting of two male and two female monkeys, were injected subcutaneously with 25 mg/kg of ISIS 416850, ISIS 449709, ISIS 445522, ISIS 449710, ISIS 449707, ISIS 449711, ISIS 449708, 416858, and ISIS 445531. Antisense oligonucleotide was administered to the monkeys at 25 mg/kg three times per week for week 1 and 25 mg/kg twice per week for weeks 2 to 8. A control group, consisting of two male and two female monkeys was injected subcutaneously with PBS according to the same dosing regimen. Body weights were taken 14 days and 7 days before the start of treatment and were then measured weekly throughout the treatment period. Blood samples were collected 14 days and 5 days before the start of treatment and subsequently several times during the dosing regimen for PT and aPTT measurements, and measurement of various hematologic factors. On day 55, the monkeys were euthanized by exsanguination while under deep anesthesia, and organs harvested for further analysis.

[2] = system: IL-1β, IL-6, IFN-γ, TNF-α, IL-8, MIP-1α, MCP-1, MIP-1β, RANTES; assay: Cytokine and chemokine assays in cynomolgus monkeys (Example 46); assay type: in vivo
Protocol: as §1
Blood samples obtained from all monkey groups were sent to Pierce Biotechnology (Woburn, Mass.) for measurements of chemokine and cytokine levels. Levels of IL-1β, IL-6, IFN-γ, and TNF-α were measured using the respective primate antibodies and levels of IL-8, MIP-1α, MCP-1, MIP-1β and RANTES were measured using the respective cross-reacting human antibodies. Measurements were taken 14 days before the start of treatment and on day 55, when the monkeys were euthanized.

[3] = day-14 (before start of treatment)

ISIS 445522: 5-8-5 or 6-8-6 MOE microwalk gapmer (Table 44) (antisense eG*e[5mC]*eA*e[5mC]*eA*dG*dT*dT*dT*d[5mC]*dT*dG*dG*e[5mC]*eA*eG*eG*e[5mC])
HCT ([1]; Day 17): 41%
MCH ([1]; Day 17): 22.8 pg
MCHC ([1]; Day 17): 30.9 g/dL
MCV ([1]; Day 17): 74 fL
RBC count ([1]; Day 17): 5.6e+06 µL⁻¹
WBC count ([1]; Day 17): 11000 µL⁻¹
hemoglobin content ([1]; Day 17): 12.7 g/dL
monocytes ([1]; Day 17): 3.6%
neutrophils ([1]; Day 17): 81%
platelet count ([1]; Day 17): 521 ×100/μL
HCT ([1]; Day 31): 43%
MCH ([1]; Day 31): 22.4 pg
MCHC ([1]; Day 31): 30.0 g/dL
MCV ([1]; Day 31): 75 fL
RBC count ([1]; Day 31): 5.8e+06 µL⁻¹
WBC count ([1]; Day 31): 13000 µL⁻¹
hemoglobin content ([1]; Day 31): 12.9 g/dL
monocytes ([1]; Day 31): 3.9%
neutrophils ([1]; Day 31): 66%
platelet count ([1]; Day 31): 425 ×100/μL
HCT ([1]; Day 45): 41%
MCH ([1]; Day 45): 22.4 pg
MCHC ([1]; Day 45): 30.7 g/dL
MCV ([1]; Day 45): 73 fL
RBC count ([1]; Day 45): 5.7e+06 µL⁻¹
WBC count ([1]; Day 45): 10000 µL⁻¹
hemoglobin content ([1]; Day 45): 12.6 g/dL
monocytes ([1]; Day 45): 4.4%
neutrophils ([1]; Day 45): 69%
platelet count ([1]; Day 45): 403 ×100/μL
HCT ([1]; Day 55): 39%
MCH ([1]; Day 55): 22.2 pg
MCHC ([1]; Day 55): 31.0 g/dL
MCV ([1]; Day 55): 72 fL
RBC count ([1]; Day 55): 5.4e+06 µL⁻¹
WBC count ([1]; Day 55): 11000 µL⁻¹
hemoglobin content ([1]; Day 55): 12.0 g/dL
monocytes ([1]; Day 55): 3.0%
neutrophils ([1]; Day 55): 125%
platelet count ([1]; Day 55): 333 ×100/μL
HCT ([1]; Day-5): 42%
MCH ([1]; Day-5): 22.5 pg
MCHC ([1]; Day-5): 30.4 g/dL
MCV ([1]; Day-5): 74 fL
RBC count ([1]; Day-5): 5.6e+06 µL⁻¹
WBC count ([1]; Day-5): 9000 µL⁻¹
hemoglobin content ([1]; Day-5): 12.7 g/dL
monocytes ([1]; Day-5): 2.3%
neutrophils ([1]; Day-5): 84%
platelet count ([1]; Day-5): 512 ×100/μL
HCT ([1]; Day-14): 42%
MCH ([1]; Day-14): 22.6 pg
MCHC ([1]; Day-14): 31.4 g/dL
MCV ([1]; Day-14): 72 fL
RBC count ([1]; Day-14): 5.9e+06 µL⁻¹
WBC count ([1]; Day-14): 10000 µL⁻¹
hemoglobin content ([1]; Day-14): 13.3 g/dL
monocytes ([1]; Day-14): 2.1%
neutrophils ([1]; Day-14): 61%
platelet count ([1]; Day-14): 433 ×100/μL
IFN-γ level ([2]; day 55): 83 pg/mL
IL-1ß level ([2]; day 55): 341 pg/mL
IL-6 level ([2]; day 55): 2 pg/mL
IL-8 level ([2]; day 55): 100 pg/mL
MCP-1 level ([2]; day 55): 592 pg/mL
MIP-1ß level ([2]; day 55): 63 pg/mL
MIP-1α level ([2]; day 55): 22 pg/mL
RANTES level ([2]; day 55): 16154 pg/mL
TNF-α level ([2]; day 55): 18 pg/mL
IFN-γ level [2, 3]: 172 pg/mL
IL-1ß level [2, 3]: 188 pg/mL
IL-6 level [2, 3]: 5 pg/mL
IL-8 level [2, 3]: 32 pg/mL
MCP-1 level [2, 3]: 297 pg/mL
MIP-1ß level [2, 3]: 27 pg/mL
MIP-1α level [2, 3]: 22 pg/mL
RANTES level [2, 3]: 3477 pg/mL
TNF-α level [2, 3]: 16 pg/mL

ISIS 449709: 3-8-3, 4-8-4, 2-10-2, 3-10-3 or 4-10-4 MOE microwalk gapmer (Table 46) (antisense eG*e[5mC]*eA*e[5mC]*dA*dG*dT*dT*dT*d[5mC]*dT*dG*dG*d[5mC]*eA*eG*eG*e[5mC])
HCT ([1]; Day 17): 43%
MCH ([1]; Day 17): 22.5 pg
MCHC ([1]; Day 17): 30.7 g/dL
MCV ([1]; Day 17): 73 fL
RBC count ([1]; Day 17): 5.9e+06 µL⁻¹
WBC count ([1]; Day 17): 11000 µL⁻¹
hemoglobin content ([1]; Day 17): 13.2 g/dL
monocytes ([1]; Day 17): 3.0%
neutrophils ([1]; Day 17): 89%
platelet count ([1]; Day 17): 449 ×100/μL
HCT ([1]; Day 31): 42%
MCH ([1]; Day 31): 22.2 pg
MCHC ([1]; Day 31): 30.7 g/dL
MCV ([1]; Day 31): 73 fL
RBC count ([1]; Day 31): 5.9e+06 µL⁻¹
WBC count ([1]; Day 31): 11000 µL⁻¹
hemoglobin content ([1]; Day 31): 13.1 g/dL
monocytes ([1]; Day 31): 2.8%
neutrophils ([1]; Day 31): 81%
platelet count ([1]; Day 31): 471 ×100/μL
HCT ([1]; Day 45): 41%
MCH ([1]; Day 45): 21.0 pg
MCHC ([1]; Day 45): 31.1 g/dL
MCV ([1]; Day 45): 71 fL
RBC count ([1]; Day 45): 5.7e+06 µL⁻¹
WBC count ([1]; Day 45): 11000 µL⁻¹
hemoglobin content ([1]; Day 45): 12.6 g/dL
monocytes ([1]; Day 45): 3.6%
neutrophils ([1]; Day 45): 77%
platelet count ([1]; Day 45): 418 ×100/μL
HCT ([1]; Day 55): 40%
MCH ([1]; Day 55): 22.0 pg
MCHC ([1]; Day 55): 31.2 g/dL
MCV ([1]; Day 55): 71 fL
RBC count ([1]; Day 55): 5.7e+06 µL⁻¹
WBC count ([1]; Day 55): 10000 µL⁻¹
hemoglobin content ([1]; Day 55): 12.5 g/dL
monocytes ([1]; Day 55): 3.4%
neutrophils ([1]; Day 55): 115%
platelet count ([1]; Day 55): 441 ×100/μL
HCT ([1]; Day-5): 42%
MCH ([1]; Day-5): 22.3 pg
MCHC ([1]; Day-5): 30.3 g/dL
MCV ([1]; Day-5): 74 fL
RBC count ([1]; Day-5): 5.8e+06 µL⁻¹
WBC count ([1]; Day-5): 10000 µL⁻¹
hemoglobin content ([1]; Day-5): 12.8 g/dL
monocytes ([1]; Day-5): 2.0%
neutrophils ([1]; Day-5): 101%
platelet count ([1]; Day-5): 481 ×100/μL
HCT ([1]; Day-14): 41%
MCH ([1]; Day-14): 22.4 pg
MCHC ([1]; Day-14): 31.4 g/dL
MCV ([1]; Day-14): 72 fL
RBC count ([1]; Day-14): 5.8e+06 µL⁻¹
WBC count ([1]; Day-14): 11000 µL⁻¹
hemoglobin content ([1]; Day-14): 12.8 g/dL
monocytes ([1]; Day-14): 4.0%
neutrophils ([1]; Day-14): 73%
platelet count ([1]; Day-14): 456 ×100/μL
IFN-γ level ([2]; day 55): 25 pg/mL
IL-1ß level ([2]; day 55): 181 pg/mL
IL-6 level ([2]; day 55): 0 pg/mL
IL-8 level ([2]; day 55): 254 pg/mL
MCP-1 level ([2]; day 55): 507 pg/mL
MIP-1ß level ([2]; day 55): 47 pg/mL
MIP-1α level ([2]; day 55): 17 pg/mL
RANTES level ([2]; day 55): 8958 pg/mL
TNF-α level ([2]; day 55): 8 pg/mL
IFN-γ level [2, 3]: 37 pg/mL
IL-1ß level [2, 3]: 137 pg/mL
IL-6 level [2, 3]: 1 pg/mL
IL-8 level [2, 3]: 34 pg/mL
MCP-1 level [2, 3]: 290 pg/mL
MIP-1ß level [2, 3]: 14 pg/mL
MIP-1α level [2, 3]: 13 pg/mL
RANTES level [2, 3]: 2471 pg/mL
TNF-α level [2, 3]: 9 pg/mL
